In PMC12150632, “Chalcones inhibit firefly bioluminescence dependent on A and B-ring substitution pattern – a structure-activity study combined with molecular docking” (Journal of Enzyme Inhibition and Medicinal Chemistry, 2025):

Biological target: T1, firefly luciferase (FLuc) (Photinus pyralis, UniProt P08659)
T1 construct: purchased Sigma-Aldrich; host or cells: E. coli
Experiment: Inhibition assay of luciferase (purified recombinant enzyme, bioluminescence readout)
Type: biochemical
Settings: n = 3; for IC50: sigmoidal fit, concentration series 100 µM to 13 nM and 300 µM to 0.41 nM; for Inhibition (%) of FLuc: compound concentration 10 µM; for Inhibition (%) of FLuc / inhibition at 10 µM: relative to DMSO vehicle control; for inhibition at 10 µM: read-out: Inhibition (%) of FLuc, compound concentration 10 µM
Description: 25 µL of luciferase protein (c = 0.6 µg/mL, Sigma-Aldrich, recombinant expressed in E.coli) in Trisbuffer (10 mM Tris, 10 mM KCl, 1 mM EGTA, 30% glycerol) pH7.4 were added to each well of a white 96 well plate (Brand). The compounds were added in 1 µL DMSO at various concentrations. After incubation of the enzyme with the compounds for 10 min at room temperature, 80 µL of FLuc buffer (25 mM glycylglycin, 4 mM EGTA, 15 mM MgSO4, 15 mM PPB) was added and the light signal was immediately measured using a multiplate reader (Clariostar, BMG) with a gain of 2500 and a measurement interval time of 2 s. Inhibition was calculated in relation to the control, enzyme treated with vehicle (DMSO).
OriginPro 2021b (64-bit) SR2 (9.8.5.212) (OriginLab) was used to determine the inhibition and IC50 values and prepare the figures. The IC50 values were calculated from the sigmoidal fit of the log scale concentration without fixing the parameters.
The inhibitory activity of all chalcones was evaluated at a concentration of 10 µM on purified recombinant firefly luciferase, as this concentration would also be used in the reporter gene assay to determine neurogenic activity.
To obtain the IC50 values and construct a concentration-response curve, chalcones were measured in the assay using a series of decreasing concentrations, ranging from 100 µM to 13 nM and from 300 µM to 0.41 nM.

T1 sequence (P08659 whole entry): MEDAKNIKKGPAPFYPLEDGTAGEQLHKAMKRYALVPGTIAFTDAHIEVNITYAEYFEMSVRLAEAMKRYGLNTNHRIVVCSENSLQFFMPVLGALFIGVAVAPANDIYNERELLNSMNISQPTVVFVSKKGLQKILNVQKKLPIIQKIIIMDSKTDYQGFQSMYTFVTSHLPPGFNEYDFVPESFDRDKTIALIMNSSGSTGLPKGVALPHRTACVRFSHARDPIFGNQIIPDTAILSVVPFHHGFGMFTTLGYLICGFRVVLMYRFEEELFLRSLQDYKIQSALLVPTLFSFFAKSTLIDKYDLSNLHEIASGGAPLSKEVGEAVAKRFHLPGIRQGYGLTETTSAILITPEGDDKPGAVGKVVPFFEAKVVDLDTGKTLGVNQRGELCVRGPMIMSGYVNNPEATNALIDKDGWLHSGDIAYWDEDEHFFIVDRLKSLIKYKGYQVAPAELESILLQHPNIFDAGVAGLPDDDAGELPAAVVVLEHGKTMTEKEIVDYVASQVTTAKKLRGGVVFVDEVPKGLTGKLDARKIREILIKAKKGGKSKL

| Compound | inhibition at 10 µM [%] | Inhibition (%) of FLuc | other results |
| --- | --- | --- | --- |
| O=C(O)c1cccc(-c2noc(-c3ccccc3F)n2)c1 [Ataluren, reference compound] | – | – | IC50: 0.11 µM |
| CC1(C)C=Cc2cc(C(=O)/C=C/c3ccc(O)cc3)ccc2O1 [Compound 2, (E)-1–(2,2dimethyl-2H-chromen-6-yl)-3–(4-hydroxyphenyl)prop-2-en-1-one] | 30 | – | Inhibition (%) of FLuc (10 µM): 32% |
| COc1cc2c(cc1C(=O)/C=C/c1ccc(O)cc1)C=CC(C)(C)O2 [Compound 3, (E)-3–(4-hydroxyphenyl)-1–(7-methoxy-2,2-dimethyl-2H-chromen-6-yl)prop-2-en-1-one] | < 5 | – | – |
| CC1(C)C=Cc2c(ccc(C(=O)/C=C/c3ccc(O)cc3)c2O)O1 [Compound 4, (E)-1–(5-hydroxy-2,2-dimethyl-2H-chromen-6-yl)-3–(4-hydroxyphenyl)prop-2-en-1-one] | < 10 | – | – |
| CC1(C)C=Cc2cc(C(=O)/C=C/c3ccc(O)cc3)c(O)cc2O1 [Compound 5, (E)-1–(7-hydroxy-2,2-dimethyl-2H-chromen-6-yl)-3–(4-hydroxyphenyl)prop-2-en-1-one] | < 5 | – | – |
| CC1(C)C=Cc2cc(C(=O)/C=C/c3ccc(O)cc3)ccc2N1 [Compound 6, (E)-1–(2,2-dimethyl-1,2-dihydroquinolin-6-yl)-3–(4-hydroxyphenyl)prop-2-en-1-one] | 18 | – | – |
| CC1(C)C=Cc2cc(C(=O)/C=C/c3ccc(N)cc3)ccc2O1 [Compound 8, (E)-3–(4-aminophenyl)-1–(2,2-dimethyl-2H-chromen-6-yl)prop-2-en-1-one] | – | comparable to that of the hydroxyl group | – |
| CC1(C)C=Cc2cc(C(=O)/C=C/c3ccc(Cl)cc3)ccc2O1 [Compound 12, (E)-3–(4-chlorphenyl)-1–(2,2-dimethyl-2H-chromen-6-yl)prop-2-en-1-one] | – | near-complete elimination of the inhibitory effect | – |
| CC1(C)C=Cc2cc(C(=O)/C=C/c3ccc(C(F)(F)F)cc3)ccc2O1 [Compound 13, (E)-1–(2,2-dihmethyl-2H-chromen-6-yl)-3–(4-(trifluoromethyl)phenyl)prop-2-en-1-one] | – | near-complete elimination of the inhibitory effect | – |
| CC1(C)C=Cc2cc(C(=O)/C=C/c3ccccc3)ccc2O1 [Compound 14, (E)-1–(2,2-dimethyl-2H-chromen-6-yl)-3-phenylprop-2-en-1-one] | – | most pronounced inhibitory effect | IC50: < 10 µM |
| CC1(C)C=Cc2cc(C(=O)/C=C/c3cccc(O)c3O)ccc2O1 [Compound 18, (E)-3–(2,3-dihydroxyphenyl)-1–(2,2-dimethyl-2H-chromen-6-yl)prop-2-en-1-one] | – | – | IC50: < 10 µM |
| (E)-1–(2,2-dimethyl-2H-thiochromen-6-yl)-3–(4-methoxyphenyl)prop-2-en-1-one [Compound 7] | – | less than 10% | – |
| (E)-1–(7-hydroxy-5-methoxy-2,2-dimethyl-2H-chromen-6-yl)-3–(4-hydroxyphenyl)prop-2-en-1-one [Compound 1] | – | – | Inhibition (%) of FLuc (10 µM): no inhibition; Inhibition (%) of FLuc (listed as xanthohumol C, 10 µM): no inhibitory effect |
